Data from BindingDB's records for doi:10.1111/cbdd.12489 (Zhejiang University, 2015).

Biological target: RAC-alpha serine/threonine-protein kinase (Homo sapiens, UniProt P31749)
Test: Akt1 Inhibitory Activity Assay
Conditions: pH 7.5; 25 °C
Experimental: In vitro kinase assays were carried out using HTScan PKB/Akt1 Kinase Assay kit (Cell Signaling Technology). […] Then, PKB/Akt1 kinase activity was analyzed according to the manufacturer's instructions.

Chain of RAC-alpha serine/threonine-protein kinase (P31749 whole entry): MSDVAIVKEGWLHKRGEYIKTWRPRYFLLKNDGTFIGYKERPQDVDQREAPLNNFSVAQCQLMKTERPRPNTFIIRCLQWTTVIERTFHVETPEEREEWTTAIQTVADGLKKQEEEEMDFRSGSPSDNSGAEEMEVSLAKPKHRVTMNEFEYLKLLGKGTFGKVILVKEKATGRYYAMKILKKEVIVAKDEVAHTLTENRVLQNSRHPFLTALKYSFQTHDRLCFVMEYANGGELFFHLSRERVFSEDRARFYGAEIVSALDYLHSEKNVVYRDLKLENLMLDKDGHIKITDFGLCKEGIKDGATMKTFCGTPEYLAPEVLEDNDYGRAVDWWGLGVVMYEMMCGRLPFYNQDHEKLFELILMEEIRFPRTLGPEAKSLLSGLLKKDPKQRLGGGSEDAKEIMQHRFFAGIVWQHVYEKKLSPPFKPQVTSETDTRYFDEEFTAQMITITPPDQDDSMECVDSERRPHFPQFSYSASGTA

O=c1c(O)c(-c2ccc(O)c(O)c2)oc2cc(O)c(CN3CCOCC3)c(O)c12 [2-(3,4-Dihydroxyphenyl)-3,5,7-trihydroxy-6-(morpholinomethyl)-4H-chromen-4-one (3a)]
IC50: 6.2 µM

CN(Cc1ccccc1)Cc1c(O)cc2oc(-c3ccc(O)c(O)c3)c(O)c(=O)c2c1O [6-((Benzyl(methyl)amino)methyl)-2-(3,4-dihydroxyphenyl)-3,5,7-trihydroxy-4H-chromen-4-one (3c)]
IC50: 5.5 µM
